Assay results reported in patent US20090057617A1, “Corrosion inhibitors containing anionic surfactants” (priority 2007, published 2009).

Test: Shell wheel test (corrosion inhibition)
Settings: 50 ppm of a 24% solution of the inhibitor; salt water/petroleum mixture 9:1, 5% NaCl, pH 3.5; 40 rpm, 70° C., 24 hours; from decrease in coupon mass, based on a blank value
Procedure: The compounds according to the invention were tested as corrosion inhibitors in the Shell wheel test. Coupons of C steel (DIN 1.1203 with 15 cm^2 surface area) were immersed in a salt water/petroleum mixture (9:1,5% strength NaCl solution adjusted to pH 3.5 with acetic acid) and exposed to this medium at a speed of 40 rpm at 70° C. for 24 hours. The inhibitor dose was 50 ppm of a 24% solution of the inhibitor. The protection values were calculated from the decrease in the mass of the coupons, based on a blank value.

## CCCCCCCC/C=C\CCCCCCCC(=O)NC(CCSC)C(=O)[O-].[K+] (racemic) [example 2, N-Oleoyl-DL-methionine potassium Salt]
  ø protection %: 69%
